Converted amounts (≈) assume the structure as drawn. “And” between values parts separate entries of the source, which are not always exact repeats. Equal values may be shown once. Read-outs that look alike come from different tables or passages of the source. Where a SMILES comes first, the peptide text is derived from it. [ ]: non-standard residue; d: D form. dChg = N[C@@H](C(=O)O)C1CCCCC1; dPhg = N[C@@H](C(=O)O)c1ccccc1; NMeL = CN[C@@H](CC(C)C)C(=O)O; dNMeL = CN[C@H](CC(C)C)C(=O)O
Columns and labels:
293T = type: cell-based, human; details: 48 h
Excerpt: (§1) Since the antitumor activity of natural galaxamide is good, we are interested in the antitumor potential of the obtained new analogs. To examine the anticancer activities of galaxamide and its analogs, two different human cancer cell lines, human non-small-cell lung cancer cells (A549) and human chronic myelogenous leukemia (K562), and one normal human cell line, human immortal embryonic kidney cells (293T), were selected for the in vitro cell models. […] The synthetic galaxamide (Gala01) was also tested as the standard. […] It was also found […] the best selectivity and highest safety and is thus worthy of further development for anticancer drugs for K562. A549, K562, and 293T cells were purchased from the Cell Resource Center of the Institute of Basic Medicine, Chinese Academy of Medical Sciences. Both A549 cells and K562 cells were cultured in RPMI (full name: Roswell Park Memorial Institute) 1640 medium containing 10% FBS (full name: fetal bovine serum, product number: C04001-500, Vivacell, Shanghai, China) and 1% p/s (full name: penicillin-streptomycin, product number: 15140122, Gbico, Waltham, MA, USA) for culture. The 293T cells were all cultured in DMEM (full name: Dulbecco's Modified Eagle Medium; cat. no.: C3113-0500, Vivacell, ShanghaiChina; containing 10% FBS and 1% p/s) for cultivation. […] Multiple types of cells were seeded into 96-well plates and treated with different concentrations of […]26 for 48 h after they returned to normal. Then, the relative activity of the cells was detected according to the instructions of the CCK-8 kit (item number: MA0218, Meilunbio, Dalian, China) and analyzed and calculated using GraphPad Prism 8.0.1 software.

K562 = type: cell-based, human
Method: To examine the anticancer activities of galaxamide and its analogs, two different human cancer cell lines, human non-small-cell lung cancer cells (A549) and human chronic myelogenous leukemia (K562), and one normal human cell line, human immortal embryonic kidney cells (293T), were selected for the in vitro cell models. […] The synthetic galaxamide (Gala01) was also tested as the standard. […] A549, K562, and 293T cells were purchased from the Cell Resource Center of the Institute of Basic Medicine, Chinese Academy of Medical Sciences. Both A549 cells and K562 cells were cultured in RPMI (full name: Roswell Park Memorial Institute) 1640 medium containing 10% FBS (full name: fetal bovine serum, product number: C04001-500, Vivacell, Shanghai, China) and 1% p/s (full name: penicillin-streptomycin, product number: 15140122, Gbico, Waltham, MA, USA) for culture. The 293T cells were all cultured in DMEM (full name: Dulbecco's Modified Eagle Medium; cat. no.: C3113-0500, Vivacell, ShanghaiChina; containing 10% FBS and 1% p/s) for cultivation. […] Multiple types of cells were seeded into 96-well plates and treated with different concentrations of […]26 for 48 h after they returned to normal. Then, the relative activity of the cells was detected according to the instructions of the CCK-8 kit (item number: MA0218, Meilunbio, Dalian, China) and analyzed and calculated using GraphPad Prism 8.0.1 software.

A549 = type: cell-based, human
Excerpt: as §1

[1] = system: human hepatocellular carcinoma Hep G2; set-up: method as in PMID 18816120; details: human hepatocellular carcinoma Hep G2 cell line; cited from earlier work
[2] = system: human renal cell carcinoma GRC-1; set-up: method as in PMID 18816120; details: human renal cell carcinoma GRC-1 cell line; cited from earlier work
[3] = human non-small-cell lung cancer cells A549, 48 h, CCK-8, unit given in the text, not in Table 2, read-out: IC50 A549
[4] = human chronic myelogenous leukemia K562, 48 h, CCK-8, unit given in the text, not in Table 2, read-out: IC50 K562
[5] = normal human embryonic kidney cells 293T, CCK-8, NA = not determined due to low inhibitory activity, read-out: IC50 293T

Row | Molecule | IC50 (K562; 48 h) | IC50 (A549; [3]) | IC50 (K562; [4]) | IC50 (A549; 48 h) | other results
1 | CC(C)C[C@@H]1NC(=O)[C@H](CC(C)C)N(C)C(=O)[C@H](CC(C)C)NC(=O)[C@H](CC(C)C)N(C)C(=O)[C@@H](Cc2ccc(Br)cc2)NC1=O [Gala18, Cyclo(Me-L-Leu-L-Leu-4-Bro-D-Phe-Me-L-Leu-L-Leu)] | 24.2 µM | – | – | – | IC50 (293T): 14.1 µM
2 | COC[C@H]1NC(=O)[C@H](CC(C)C)NC(=O)[C@H](CC(C)C)N(C)C(=O)[C@H](CC(C)C)NC(=O)[C@H](CC(C)C)N(C)C1=O [Gala12, Cyclo(Me-L-Leu-L-Leu-O-Me-D-Ser-Me-L-Leu-L-Leu)] (cyclo(L[NMeL]L[dS](Me)[NMeL])) | 61.8 µM | – | – | – | IC50 (293T): 14.1 µM
3 | CC(C)C[C@@H]1NC(=O)[C@@H](CC(C)C)NC(=O)[C@H](CC(C)C)N(C)C(=O)[C@@H](CC(C)C)NC(=O)[C@H](CC(C)C)N(C)C1=O [Gala05, Cyclo(Me-L-Leu-D-Leu-L-Leu-Me-L-Leu-D-Leu)] (cyclo(L[NMeL][dL][NMeL][dL])) | – | > 20 µM | 10.2 µM | – | –
4 | CC(C)C[C@@H]1NC(=O)[C@@H](CC(C)C)N(C)C(=O)[C@H](CC(C)C)NC(=O)[C@@H](CC(C)C)N(C)C(=O)[C@@H](CC(C)C)NC1=O [Gala04, Cyclo(Me-D-Leu-L-Leu-D-Leu-Me-D-Leu-L-Leu)] (cyclo(L[dL][dNMeL]L[dNMeL])) | – | 19 µM | 4.19 µM and 4.2 µM | – | IC50 (293T; [5]): 16.3 µM
5 | CC(C)C[C@@H]1NC(=O)[C@H](CC(C)C)N(C)C(=O)[C@H](CC(C)C)NC(=O)[C@H](CC(C)C)N(C)C(=O)[C@@H](c2ccccc2)NC1=O [Gala20, Cyclo(Me-L-Leu-L-Leu-D-phenyl-Gly-Me-L-Leu-L-Leu)] (cyclo(L[NMeL]L[dPhg][NMeL])) | > 80 µM | – | – | > 20 µM | –
6 | CC(C)C[C@@H]1NC(=O)[C@H](CC(C)C)N(C)C(=O)[C@H](CC(C)C)NC(=O)[C@H](CC(C)C)N(C)C(=O)CNC1=O [Gala10, Cyclo(Me-L-Leu-L-Leu-Gly-Me-L-Leu-L-Leu)] (cyclo([NMeL]LG[NMeL]L)) | 27.2 µM | – | – | > 20 µM | –
7 | CC(C)C[C@@H]1NC(=O)[C@H](CC(C)C)N(C)C(=O)[C@H](CC(C)C)NC(=O)[C@H](CC(C)C)N(C)C(=O)[C@@H](C2CCCCC2)NC1=O [Gala19, Cyclo(Me-L-Leu-L-Leu-D-cyclohexyl-Gly-Me-L-Leu-L-Leu)] (cyclo(L[NMeL]L[dChg][NMeL])) | 75.2 µM | – | – | > 20 µM | –
8 | COC(=O)C[C@H]1NC(=O)[C@H](CC(C)C)NC(=O)[C@H](CC(C)C)N(C)C(=O)[C@H](CC(C)C)NC(=O)[C@H](CC(C)C)N(C)C1=O [Gala14, Cyclo(Me-L-Leu-L-Leu-Methylester-D-Asp-Me-L-Leu-L-Leu)] (cyclo(L[NMeL]L[dD](OMe)[NMeL])) | 29.6 µM | – | – | 20 µM | IC50 (293T): 22.2 µM
9 | CC(C)C[C@@H]1NC(=O)[C@H](CC(C)C)N(C)C(=O)[C@H](CC(C)C)NC(=O)[C@H](CC(C)C)N(C)C(=O)[C@@H](C)NC1=O [Gala11, Cyclo(Me-L-Leu-L-Leu-D-Ala-Me-L-Leu-L-Leu)] (cyclo([NMeL]L[dA][NMeL]L)) | 33.8 µM | – | – | – | IC50 (293T): 13.3 µM
10 | CC(C)C[C@H]1NC(=O)[C@H](CC(C)C)N(C)C(=O)[C@@H](CC(C)C)NC(=O)[C@H](CC(C)C)N(C)C(=O)[C@@H](CC(C)C)NC1=O [Gala06, Cyclo(Me-L-Leu-D-Leu-D-Leu-Me-L-Leu-D-Leu)] (cyclo([NMeL][dL][NMeL][dL][dL])) | – | > 20 µM | 28.8 µM | – | –
11 | CC(C)C[C@@H]1NC(=O)[C@H](CC(C)C)N(C)C(=O)[C@H](CC(C)C)NC(=O)[C@H](CC(C)C)N(C)C(=O)[C@@H](Cc2cccc(F)c2)NC1=O [Gala15, Cyclo(Me-L-Leu-L-Leu-3-Flu-D-Phe-Me-L-Leu-L-Leu)] | 13 µM | – | – | > 20 µM | –
12 | Cc1ccccc1C[C@H]1NC(=O)[C@H](CC(C)C)NC(=O)[C@H](CC(C)C)N(C)C(=O)[C@H](CC(C)C)NC(=O)[C@H](CC(C)C)N(C)C1=O [Gala16, Cyclo(Me-L-Leu-L-Leu-2-Me-D-Phe-Me-L-Leu-L-Leu)] | > 80 µM | – | – | > 20 µM | –
13 | (−)-β-elemene [reference compound] | – | > 100 µM | > 100 µM | – | IC50 (293T; [5]): > 100 µM
14 | CC(C)C[C@@H]1C(=O)N[C@H](CC(C)C)C(=O)N[C@H](CC(C)C)C(=O)N(C)[C@H](CC(C)C)C(=O)N[C@H](CC(C)C)C(=O)N1C [Gala01, Cyclo(Me-D-Leu-D-Leu-D-Leu-Me-D-Leu-D-Leu)] (cyclo([dL][dL][dNMeL][dL][dNMeL])) | – | 14 µM | > 80 µM | – | IC50 (293T; [5]): 19.9 µM; IC50 Hep G2 [1]: 4.63 µg/mL (≈ 7.8 µM); IC50 GRC-1 [2]: 4.26 µg/mL (≈ 7.17 µM)
15 | CC(C)C[C@@H]1NC(=O)[C@H](CC(C)C)N(C)C(=O)[C@H](CC(C)C)NC(=O)[C@H](CC(C)C)N(C)C(=O)[C@@H](Cc2ccc(Cl)cc2)NC1=O [Gala17, Cyclo(Me-L-Leu-L-Leu-4-Chl-D-Phe-Me-L-Leu-L-Leu)] | 77.7 µM | – | – | > 20 µM | –
16 | CC(C)C[C@@H]1NC(=O)[C@H](CC(C)C)N(C)C(=O)[C@H](CC(C)C)NC(=O)[C@H](CC(C)C)N(C)C(=O)[C@@H](C(C)C)NC1=O [Gala21, Cyclo(Me-L-Leu-L-Leu-D-Val-Me-L-Leu-L-Leu)] (cyclo([NMeL]L[dV][NMeL]L)) | 49.3 µM | – | – | > 20 µM | –
17 | CC(C)C[C@@H]1NC(=O)[C@H](CC(C)C)N(C)C(=O)[C@H](CC(C)C)NC(=O)[C@H](CC(C)C)N(C)C(=O)[C@@H](Cc2ccccc2)NC1=O [Gala09, Cyclo(Me-L-Leu-L-Leu-D-Phe-Me-L-Leu-L-Leu)] | 14.9 µM | – | – | > 20 µM | –
18 | CC(C)C[C@@H]1NC(=O)[C@@H](CC(C)C)NC(=O)[C@@H](CC(C)C)N(C)C(=O)[C@@H](CC(C)C)NC(=O)[C@@H](CC(C)C)N(C)C1=O [Gala07, Cyclo(Me-D-Leu-D-Leu-L-Leu-Me-D-Leu-D-Leu)] (cyclo(L[dNMeL][dL][dNMeL][dL])) | – | > 20 µM | > 80 µM | – | –
19 | Cc1cccc(C[C@H]2NC(=O)[C@H](CC(C)C)NC(=O)[C@H](CC(C)C)N(C)C(=O)[C@H](CC(C)C)NC(=O)[C@H](CC(C)C)N(C)C2=O)c1 [Gala23, Cyclo(Me-L-Leu-L-Leu-3-Me-D-Phe-Me-L-Leu-L-Leu)] | 6.9 µM | – | – | > 20 µM | –
20 | CC(C)C[C@@H]1NC(=O)[C@H](CC(C)C)N(C)C(=O)[C@H](CC(C)C)NC(=O)[C@H](CC(C)C)N(C)C(=O)[C@@H](CC(C)C)NC1=O [Gala02, Cyclo(Me-L-Leu-L-Leu-D-Leu-Me-L-Leu-L-Leu)] (cyclo(L[NMeL]L[dL][NMeL])) | – | > 20 µM | 8.6 µM | – | –
21 | CSCC[C@H]1NC(=O)[C@H](CC(C)C)NC(=O)[C@H](CC(C)C)N(C)C(=O)[C@H](CC(C)C)NC(=O)[C@H](CC(C)C)N(C)C1=O [Gala22, Cyclo(Me-L-Leu-L-Leu-D-Met-Me-L-Leu-L-Leu)] (cyclo(L[NMeL]L[dM][NMeL])) | 8.5 µM | – | – | – | IC50 (293T): 12.9 µM
22 | COc1ccc(C[C@H]2NC(=O)[C@H](CC(C)C)NC(=O)[C@H](CC(C)C)N(C)C(=O)[C@H](CC(C)C)NC(=O)[C@H](CC(C)C)N(C)C2=O)cc1 [Gala13, Cyclo(Me-L-Leu-L-Leu-O-Tyr-Me-L-Leu-L-Leu)] (cyclo(L[NMeL]L[dY](Me)[NMeL])) | > 80 µM | – | – | > 20 µM | –
23 | CC(C)C[C@@H]1NC(=O)[C@@H](CC(C)C)N(C)C(=O)[C@H](CC(C)C)NC(=O)[C@@H](CC(C)C)N(C)C(=O)[C@H](CC(C)C)NC1=O [Gala03, Cyclo(Me-D-Leu-L-Leu-L-Leu-Me-D-Leu-L-Leu)] (cyclo(LL[dNMeL]L[dNMeL])) | – | > 20 µM | > 80 µM | – | –
